In the assay the target is T1, PASK (Invitrogen) (Homo sapiens, UniProt Q96RG2).
T1 construct: IC50 Kinase Domain; purchased Invitrogen
Kind of assay: PAS Kinase FRET Assay. The settings on record: PAS kinase TR-FRET assay (665 nm/615 nm); read-out: IC50 Kinase Domain. The assay is classed as biochemical. The text has this:
Biochemical Assay for hPASK Activity
The aim of the FRET assay is to determine the inhibition potential of test compounds on targeted kinase. This assay platform provides a homogenous screening method for measuring kinase activity by quantitating the amount of phospho-substrate in solution following a kinase reaction.
In the presence of kinase and ATP, the Ulight-peptide is phosphorylated and captured by an anti-phospho-substrate antibody, which brings the Eu chelate donor and Ulight acceptor dyes into close proximity. Upon excitation at 340 nm, the Eu chelate transfers its energy to the Ulight dye, resulting in a fluorescent light emission at 665 nm.
Titration of kinase at 1 mM ATP was achieved via the following protocol. After making serial three-fold dilutions of PASK (Invitrogen) in reaction buffer across the plate; 5 μl of kinase dilution and 5 μl substrate/ATP mix were added to the wells of the white Optiplate-384 (PerkinElmer). The contents of the plate were and incubated at RT for 1 h. The reaction was stopped by adding 5 μl of stop solution to each test well followed by mixing and incubation at RT for 10 minutes. 5 μl of detection mix (detection antibody diluted in detection buffer) was added; the contents of the plate were mixed and then incubated in the dark for 1 hour at RT. The signal was recorded at TR-FRET mode (665 nm/615 nm). The results were graphed to calculate the EC50.
Titration of ATP at the EC50 concentration of kinase to determine ATP Km,app. was performed using the following method. After making serial dilutions of ATP (Invitrogen), 5 μl of ATP dilution and 5 μl substrate/kinase mix were added to the wells of the white Optiplate-384 (PerkinElmer). The contents of the plate were and incubated at RT for 1 h. The reaction was stopped by adding 5 μl of stop solution to each test well followed by mixing and incubation at RT for 10 minutes. 5 μl of detection mix (detection antibody diluted in detection buffer) was added; the contents of the plate were mixed and then incubated in the dark for 1 hour at RT. The signal was recorded at TR-FRET mode (665 nm/615 nm). The results were graphed to calculate the EC50 as the ATP Km,app.
Compound screening was done via the following method. 10 mM stock solution of test compound in DMSO was prepared by dissolving test compound in DMSO at RT for 1 hour, and then sonicating at 100% output for 8 minutes. If compound is not soluble under this condition, it was diluted to 3 mM. Kinase reaction buffer was prepared containing 10 mM MgCl2, 50 mM HEPES, 1 mM EGTA, 0.01% TWEEN-20, 2 mM DTT. Serial dilutions of the test compounds were prepared at 4× final assay concentrations using Freedom EVO200® dispensing system as follows: 12×10^−5 M, 4×10^−5 M, 1.33×10^−5 M, 4.44×10^−6 M, 1.48×10^−6 M, 4.92×10^−7 M, 1.65×10^−7 M, […], 1.82×10^−8M, 6.09×10^−9, 2.03×10^−9 M. Test compounds (2.5 μl at 4× the final assay concentration) was added to wells using Freedom EVO200® dispensing system. As a positive control, 2.5 μl of positive compound was added to assay wells, and 2.5 μl of DMSO to assay wells as vehicle control. Kinase solution was prepared in reaction buffer at 2× final assay concentration. Kinase solution (5 μl) was added to each well of the assay plate. The substrate and ATP solution was prepared in kinase reaction buffer at 4× final assay concentration. The kinase reaction was started by adding 2.5 μl of substrate+ATP mix solution to each well of the assay plate. The plate is mixed on a plate shaker; then covered and allowed to react for 2 hours in the dark at 25° C. without shaking. The reaction was stopped by adding 5 μl of stop solution to each test well followed by mixing and incubation at RT for 10 minutes in the dark. 5 μl of detection mix (detection antibody diluted in detection buffer) was added; the contents of the plate were mixed and then incubated in the dark for 1 hour at RT. The signal was recorded at TR-FRET mode (665 nm/615 nm).
A general note: TR-FRET usually uses a lanthanide donor and a delayed reading to cut background.

The structures appear in SMILES notation.

T1 sequence (Q96RG2 999-1251 limits assumed): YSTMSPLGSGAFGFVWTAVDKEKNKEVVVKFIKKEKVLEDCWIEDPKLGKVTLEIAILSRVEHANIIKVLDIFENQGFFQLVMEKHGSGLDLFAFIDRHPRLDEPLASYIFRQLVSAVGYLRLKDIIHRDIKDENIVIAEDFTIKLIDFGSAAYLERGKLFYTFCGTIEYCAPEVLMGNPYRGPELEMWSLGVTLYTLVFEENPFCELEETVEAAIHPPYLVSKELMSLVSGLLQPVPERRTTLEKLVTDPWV

The term IC50 denotes the concentration that inhibits the measured activity by half. For `CCc1cnc(-c2cnn3c(=O)cc(-c4ccc5[nH]nnc5c4)[nH]c23)o1` [Example 6, 5-(1H-1,2,3-benzotriazol-5-yl)-3-(5-ethyl-1,3-oxazol-2-yl)-4H,7H-pyrazolo[1,5-a]pyrimidin-7-one], the IC50 is at most 10 µM.

Take `CCn1ncc2cc(-c3cc(=O)n4nc(C)c(-c5nc(C)co5)c4[nH]3)ccc21` [Example 42, 5-(1-ethyl-1H-indazol-5-yl)-2-methyl-3-(4-methyloxazol-2-yl)-4H,7H-pyrazolo[1,5-a]pyrimidin-7-one]: the IC50 was at most 10 µM. To `COc1cc(-c2cc(=O)n3ncc(-c4cc(C)no4)c3[nH]2)ccc1Cl` [Example 52, 5-(4-chloro-3-methoxyphenyl)-3-(3-methylisoxazol-5-yl)pyrazolo[1,5-a]pyrimidin-7(4H)-one] belongs at most 10 µM; to `CCn1ncc2cc(-c3cc(=O)n4nc(C)c(-c5ncco5)c4[nH]3)ccc21` [Example 29, 5-(1-ethyl-1H-indazol-5-yl)-2-methyl-3-(oxazol-2-yl)-4H,7H-pyrazolo[1,5-a]pyrimidin-7-one], at most 10 µM.

For the compound `CCn1ncc2cc(-c3cc(=O)n4ncc(-c5nnc(C)o5)c4[nH]3)ccc21` [Example 31, 5-(1-ethyl-1H-indazol-5-yl)-3-(5-methyl-1,3,4-oxadiazol-2-yl)-4H,7H-pyrazolo[1,5-a]pyrimidin-7-one], the IC50 was at most 10 µM. Regarding `COc1cc(-c2cc(=O)n3ncc(-c4noc5ccccc45)c3[nH]2)ccc1Cl` [Example 50, 3-(benzo[d]isoxazol-3-yl)-5-(4-chloro-3-methoxyphenyl)pyrazolo[1,5-a]pyrimidin-7(4H)-one], the IC50 is at most 10 µM.

Take `COc1cc(-c2cc(=O)n3ncc(-c4nc5ccccc5o4)c3[nH]2)ccc1Cl` [Example 45, 3-(benzo[d]oxazol-2-yl)-5-(4-chloro-3-methoxyphenyl)pyrazolo[1,5-a]pyrimidin-7(4H)-one]: the IC50 was at most 10 µM.

For `Cc1noc2cc(-c3cc(=O)n4ncc(C(N)=O)c4[nH]3)ccc12` [Example 122, 5-(3-methylbenzo[d]isoxazol-6-yl)-7-oxo-4,7-dihydropyrazolo[1,5-a]pyrimidine-3-carboxamide], the IC50 is at most 10 µM. Regarding `COc1cc(-c2cc(=O)n3ncc(-c4ncc(-c5ccccc5)o4)c3[nH]2)ccc1Cl` [Example 63, 5-(4-chloro-3-methoxyphenyl)-3-(5-phenyloxazol-2-yl)-4H,7H-pyrazolo[1,5-a]pyrimidin-7-one], the IC50 was at most 10 µM. To `CCn1ncc2cc(-c3cc(=O)n4ncc(-c5ccn(C)n5)c4[nH]3)ccc21` [Example 32, 5-(1-ethyl-1H-indazol-5-yl)-3-(1-methyl-1H-pyrazol-3-yl)-4H,7H-pyrazolo[1,5-a]pyrimidin-7-one] belongs at most 10 µM. In the case of `Cc1noc(-c2cnn3c(=O)cc(-c4ccc5c(cnn5C5COC5)c4)[nH]c23)n1` [Example 99, 3-(3-methyl-1,2,4-oxadiazol-5-yl)-5-(1-(oxetan-3-yl)-1H-indazol-5-yl)pyrazolo[1,5-a]pyrimidin-7(4H)-one], the IC50 is at most 10 µM. As for `CCCc1nn2c(=O)cc(-c3ccc4c(cnn4CC)c3)[nH]c2c1-c1nc(C)no1` [Example 116, 5-(1-ethyl-1H-indazol-5-yl)-3-(3-methyl-1,2,4-oxadiazol-5-yl)-2-propyl-4H,7H-pyrazolo[1,5-a]pyrimidin-7-one], the IC50 is at most 10 µM. Regarding `Cc1cnc(-c2cnn3c(=O)cc(-c4ccc(Cl)cc4)[nH]c23)s1` [Example 106, 5-(4-Chlorophenyl)-3-(5-methylthiazol-2-yl)pyrazolo[1,5-a]pyrimidin-7(4H)-one], the IC50 is at most 10 µM. To `COc1cc(-c2cc(=O)n3ncc(-c4nc5ccccc5s4)c3[nH]2)ccc1Cl` [Example 41, 3-(benzo[d]thiazol-2-yl)-5-(4-chloro-3-methoxyphenyl)pyrazolo[1,5-a]pyrimidin-7(4H)-one] belongs at most 10 µM.

For `O=c1cc(-c2ccc(Cl)c(Cl)c2)[nH]c2c(-c3noc4ccccc34)cnn12` [Example 60, 3-(benzo[d]isoxazol-3-yl)-5-(3,4-dichlorophenyl)pyrazolo[1,5-a]pyrimidin-7(4H)-one], the IC50 is at most 10 µM.

The values are drawn from US10392389B2, “Heterocyclic compounds for the inhibition of PASK” (BioEnergenix, LLC, priority 2012, dated 2019).
